According to the supplement of paper PMC11208160:
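Further: IS621 bridge recombinase in Escherichia coli cells against a fixed T5 target plasmid.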

Assay: recombinant UMI read abundance after kanamycin selection (control-corrected) (log10(CPM+1)); higher = more efficient recombination; extreme values may be limits of the assay; sequences stand for … in AGTGCAGAGAAAATCGGCCAGTTTTCTCTGCCTGCAGTCCGCATGCCGTGGGACCCCTTGGGTTCTAACCTGTTGCCTAGATTTATGCAGCGGACTGCCTTTCTCCCAAAGTGATAAACCGG…AGGTTGGTTTCACT; site = the 11-nt donor
How it was run: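 For the IS621 bridge recombinase, a pooled Escherichia coli screen tested donor and donor-binding-loop pairs. Cells received the pair library together with a target plasmid encoding a fixed target and T7-inducible recombinase, then went onto IPTG (0.07 mM) plus kanamycin or unselected plates in duplicate. After PCR across the donor–target junction and sequencing, recombinant UMI counts were normalized to CPM, averaged, and scaled by control-derived factors. Each value is given as log10(CPM+1).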
In the case of “TGCTAGGCATGGACCGGTTTTCCCGGTAATCCGTATTTGAT (site TGCTAGGCTAT)”, the “recombinant UMI read abundance (log10)” value is reported as 0.326.
For “TGCTATGCATGGACCGGTTTTCCCGGTAATCCGTATTTGGT (site TGCTAAGCTAC)”, the “recombinant UMI read abundance (log10)” value was 0.0239.
With “TGCTATGCATGGACCGGTTTTCCCGGTAATCCGTATTTGGT (site TGCTACGCTAC)” the “recombinant UMI read abundance (log10)” value was 0.0173.
In the case of “TGCTATGCATGGACCGGTTTTCCCGGTAATCCGTATTTGGT (site TGCTAGGCTAC)”, the “recombinant UMI read abundance (log10)” value is reported as 0.00428.
In the case of “TGCTATGCATGGACCGGTTTTCCCGGTAATCCGTATTTGGT (site TGCTATGCTAC)”, the “recombinant UMI read abundance (log10)” value is reported as 0.262.
For “TGCTATTCATGGACCGGTTTTCCCGGTAATCCGTATTTGTA (site TGCTATTCTTA)”, the “recombinant UMI read abundance (log10)” value was 1.33.
For “TGCTCACCATGGACCGGTTTTCCCGGTAATCCGTATTTGTA (site TGCTCACCTTA)”, the “recombinant UMI read abundance (log10)” value was 0.0115.
With “TGCTGGGCATGGACCGGTTTTCCCGGTAATCCGTATTTGCC (site TGCTGGGCTGG)” the “recombinant UMI read abundance (log10)” value was 0.00658.
For “TGCTTATCATGGACCGGTTTTCCCGGTAATCCGTATTTGTG (site TGCTTATCTCA)”, the “recombinant UMI read abundance (log10)” value was 1.
With “TGCTTGCCATGGACCGGTTTTCCCGGTAATCCGTATTTGAA (site TGCTTGCCTTT)” the “recombinant UMI read abundance (log10)” value was 0.0149.
In the case of “TGGAAGACATGGACCGGTTTTCCCGGTAATCCGTATTTGCA (site AGGAAGACTTG)”, the “recombinant UMI read abundance (log10)” value is reported as 1.64.
With “TGGAAGACATGGACCGGTTTTCCCGGTAATCCGTATTTGCA (site CGGAAGACTTG)” the “recombinant UMI read abundance (log10)” value was 1.44.
For “TGGAAGACATGGACCGGTTTTCCCGGTAATCCGTATTTGCA (site GGGAAGACTTG)”, the “recombinant UMI read abundance (log10)” value was 0.
For “TGGAAGACATGGACCGGTTTTCCCGGTAATCCGTATTTGCA (site TGGAAGACTTG)”, the “recombinant UMI read abundance (log10)” value was 2.67.
For “TGGAAGTCATGGACCGGTTTTCCCGGTAATCCGTATTTGCA (site AGGAAGACTTG)”, the “recombinant UMI read abundance (log10)” value was 0.00562.
For “TGGAAGTCATGGACCGGTTTTCCCGGTAATCCGTATTTGCA (site TGGAAGTCTTG)”, the “recombinant UMI read abundance (log10)” value was 3.25.
In the case of “TGGAATCCATGGACCGGTTTTCCCGGTAATCCGTATTTGTT (site AGGAATCCTAA)”, the “recombinant UMI read abundance (log10)” value is reported as 0.
With “TGGAATCCATGGACCGGTTTTCCCGGTAATCCGTATTTGTT (site CGGAATCCTAA)” the “recombinant UMI read abundance (log10)” value was 0.
For “TGGAATCCATGGACCGGTTTTCCCGGTAATCCGTATTTGTT (site GGGAATCCTAA)”, the “recombinant UMI read abundance (log10)” value was 0.
With “TGGAATCCATGGACCGGTTTTCCCGGTAATCCGTATTTGTT (site TGGAATCCTAA)” the “recombinant UMI read abundance (log10)” value was 0.
With “TGGACGGCATGGACCGGTTTTCCCGGTAATCCGTATTTGGC (site TGGACGGCTGC)” the “recombinant UMI read abundance (log10)” value was 1.89.
With “TGGACGGCATGGACCGGTTTTCCCGGTAATCCGTATTTGGC (site TGGCCGGCTGC)” the “recombinant UMI read abundance (log10)” value was 0.327.
For “TGGACGGCATGGACCGGTTTTCCCGGTAATCCGTATTTGGC (site TGGGCGGCTGC)”, the “recombinant UMI read abundance (log10)” value was 0.
In the case of “TGGACGGCATGGACCGGTTTTCCCGGTAATCCGTATTTGGC (site TGGTCGGCTGC)”, the “recombinant UMI read abundance (log10)” value is reported as 0.392.
For “TGGACGTCATGGACCGGTTTTCCCGGTAATCCGTATTTGTT (site TGGACGTCTAA)”, the “recombinant UMI read abundance (log10)” value was 0.483.
For “TGGACTACATGGACCGGTTTTCCCGGTAATCCGTATTTGAC (site AGGACTACTGT)”, the “recombinant UMI read abundance (log10)” value was 0.
With “TGGACTACATGGACCGGTTTTCCCGGTAATCCGTATTTGAC (site CGGACTACTGT)” the “recombinant UMI read abundance (log10)” value was 0.
For “TGGACTACATGGACCGGTTTTCCCGGTAATCCGTATTTGAC (site GGGACTACTGT)”, the “recombinant UMI read abundance (log10)” value was 0.
With “TGGACTACATGGACCGGTTTTCCCGGTAATCCGTATTTGAC (site TGGACTACTGT)” the “recombinant UMI read abundance (log10)” value was 1.55.
